Measurements reported in patent US12630600B2 (MEDIMMUNE LIMITED, priority 2022, dated 2026).
Like-named read-outs stand apart in the source and are kept apart here. Starred links: 1 amine or outer side, 2 acyl side, 3 side chain; linkers in the order of their positions; H or OH if unused. Non-standard residues stand in square brackets, D forms with d. Residues, ends and D or L forms follow the SMILES beside them. Groups on a side chain read outwards from the residue. No end group written: not given here. *: point of attachment. C20 diacid = O=C(O)CCCCCCCCCCCCCCCCCCC(=O)*; C18 diacid = O=C(O)CCCCCCCCCCCCCCCCC(=O)*; γGlu = O=C(O)[C@H](CCC(=O)[*:2])N[*:1]; αMeF = C[C@](N)(Cc1ccccc1)C(=O)O; AEEA = NCCOCCOCC(=O)O; Aib = CC(C)(N)C(=O)O

Columns and labels:
Male C57Bl/6 mice = assay: Mouse acute food intake study; assay type: in vivo; conditions: s.c., dose 10 nmol/kg, food intake at 24 h vs vehicle
Experimental: Male C57Bl/6 mice obtained from Jackson Laboratories or Charles River at 8-9 weeks of age and were housed one per cage in BioDaq (Research Diets) cages. Mice were placed on Alpha Dri bedding, standard chow diet (Envigo, 2018) and given water pouches. Mice were allowed to acclimate for 1-2 weeks. Body weight was measured to ensure appropriate acclimation. After acclimation, mice were sham dosed a minimum of 2 times prior to initiation of food intake study. On study day, mice were placed in clean cage bottoms, weighed, and fasted for 6-8 hours. Mice were sorted into groups based on average 24-hour food intake data and body weight. 1-2 hours prior to lights out, mice were dosed subcutaneously with one vehicle or test peptide dissolved in an appropriate vehicle at 5 mL/kg. Mice were left undisturbed and allowed access to food and water for 48 hours. Automated food intake was monitored in the BioDaq system was monitored during this time. Discrete food intake data was exported into MS Excel from which cumulative food intake data was generated and analyzed.

[1] = test system: T1, porcine pancreatic pepsin; assay: Proteolytic resistance to FasSSGF containing porcine pancreatic pepsin; assay type: in vitro ADME; conditions: pig, simulated gastric fluid
T1 construct: purchased Sigma P7012
Experimental: (§1) Lyophilized porcine pancreatic pepsin (Sigma: P7012) was reconstituted to 0.5 mg/mL (˜2500 units/mL) in freshly prepared FasSSGF (Biorelevant media) to give the enzyme stock solution. Peptide stock solution was prepared to a concentration of 250 μM (˜1.0 mg/mL) in FasSSGF. 200 μL ([…], ˜250 units) of pepsin stock solution was added to 200 μL of peptide solution (1.0 mg/mL, ˜100 μg of peptide, ˜25 nmoles) and the mixture was co-incubated in a temperature-regulated incubator at 37° C. for the duration of the experiment. 30 μL aliquot of the peptide-enzyme mixture was periodically withdrawn (t=0, 5, 10, 15, and 30 min) and quenched immediately by addition of 80 μL of 0.1 M ammonium bicarbonate solution in water/acetonitrile (4:1, pH 8) to arrest proteolytic activity. 30 μL aliquot was analyzed by analytical RP-HPLC. Analytical RP-HPLC method: Agilent Polaris C8-A column (4.6×100 mm, 3 micron) eluted with a linear binary gradient of 10-90°/MeCN (0.1% TFA v/v) in water (0.1% TFA v/v) over either 10 or 15 mins at 1.5 mL min-1 at 40° C. with detection by UV absorption at 210 nm. Manual integration (AUC) allowed estimation of remaining intact peptide over the time course of the experiment.

wildtype (WT) mice = assay: Glucose change in wildtype mice; assay type: in vivo, mouse; conditions: s.c., 1.5 nmol/kg, somatostatin pretreatment 30 min prior to cpd
In short: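 Chow-fed wildtype mice, 8-14 weeks old, n=4-8/group, fasted 2 h before peptide injection, in some studies after octreotide 10 mg/kg 30 min before dosing. Blood glucose by glucometer at −30, 0, 30, 60, 120, 180, 240 and 360 min; mice reused up to 3 times with ≥1-week washout.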

neprilysin = target: T2, neprilysin (Homo sapiens, UniProt P08473); assay: Proteolytic resistance to neprilysin; assay type: in vitro ADME; conditions: pH 8.3
T2 construct: purchased R&D Systems 1182-ZNC-010
In short: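 Peptide (~250 µM stock) was mixed 1:1 with recombinant neprilysin (100 µg/mL stock) in Tris/NaCl/NaHCO3 buffer, pH 8.3, at 37 °C. Aliquots taken at 0, 30 min, 1, 2, 4 and 24 h were TFA-quenched. Intact peptide remaining was estimated by RP-HPLC peak area at 210 nm.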

[2] = cynomolgus monkey, in vivo, 20 nmol/kg
Description: (§2) Selected test peptides (n=8) were profiled for pharmacokinetic (PK) properties in the mouse after single intravenous (i.v.) or subcutaneous (s.c.) dose. A subset (n=4) meeting the acceptance criteria was subsequently profiled in the dog (single i.v. dose) and non-human primate (single i.v. and s.c. dose). […] Low-binding plasticware containers were used during preparation and sample handling to avoid non-specific binding.
Non-human primate: PK was studied in non-naïve male cynomolgus monkeys. After dosing, PK samples were collected from the femoral vein. Blood of each sample was transferred into plastic micro centrifuge tubes containing EDTA-K2, inverted several times for proper mixing of contents and then placed on wet ice.
(§3) Samples analysis: Samples were analyzed by LC-MS/MS. Calibration standards were injected at the beginning and end of each batch and the determined concentration for each prepared standard was used to construct a calibration curve. Plasma and dose aliquot sample concentrations were determined from the plasma calibration curve.
Data analysis: Plasma concentration data was analyzed by non-compartmental analysis (NCA) using Phoenix Winnonlin v. 8.3.3.33. […] Subcutaneous bioavailability was calculated as the ratio AUC(s.c.)0-inf/AUC(i.v.)0-inf. […]

[3] = dog, in vivo, iv, 10 nmol/kg
Description: as §2
Blood of each sample was transferred into plastic micro centrifuge tubes containing EDTA-K2, inverted several times for proper mixing of contents and then placed on wet ice.
as §3
Data analysis: Plasma concentration data was analyzed by non-compartmental analysis (NCA) using Phoenix Winnonlin v. 8.3.3.33. Linear trapezoidal rule was used for increasing values and log trapezoidal rule was used for decreasing values, applying uniform weighting for lambda_z calculations. Subcutaneous bioavailability was calculated as the ratio AUC(s.c.)0-inf/AUC(i.v.)0-inf. Reported values (Table 18) represent the mean of the individual estimates.

Pancreatin = assay: Proteolytic resistance to fasted-state simulated intestinal fluid (FasSSIF/Pancreatin); assay type: in vitro ADME; conditions: 0 min, 37° C.
Experimental: A fresh suspension of FasSSIF/P (Fasted-State Simulated Intestinal Fluid+USP Pancreatin®) was prepared according to that described by Galia, Nicolaides, Hörter, Löbenberg, Reppas and Dressman: Pharm. Res. 15 (1998) 698-70.5, and USP XL requirements. The resulting preparation was used immediately without storage.
Peptide for evaluation (1.0 mg) was dissolved in pre-warmed FasSSIF without Pancreatin® (200 μL). To this fresh FasSSIF/Pancreatin® (100 μL) was added to initiate potential proteolysis. Following momentary vortexing of the reaction tube the mixture was incubated at 37° C. in a thermostatic water bath for the duration of the experiment. 25 μL aliquot of the co-incubated peptide-enzyme mixture was periodically withdrawn (t=0, 5, 10 15 and 30 min) and quenched immediately by addition to a solution of 10% TFA in 1:1 water/acetonitrile (75 μL) to arrest proteolytic activity. Quenched samples were centrifuged (7800 RPM, 3 mins) to pellet solids and 10 μL aliquots of the supernatant solution were analyzed using analytical RP-HPLC as follows: Analytical RP-HPLC method: Agilent Polaris C8-A column (4.6×100 mm, 3 micron) eluted with a linear binary gradient of 10-90% MeCN (0.1% TFA v/v) in water (0.1% TFA v/v) over either 10 or 15 mins at 1.5 mL min^−1 at 40° C. with detection by UV absorption at 210 nm. […]

[4] = target: T3, porcine pancreatic pepsin (Sus scrofa, UniProt P00791); assay: Proteolytic resistance to FasSSGF containing porcine pancreatic pepsin; assay type: in vitro ADME; conditions: 0 min, FasSSGF with pepsin, 37° C.
T3 construct: purchased Sigma P7012
Experimental: as §1

human glucagon receptor = human glucagon receptor (human, UniProt P47871); assay: cell-based or functional assay
human GLP-1 receptor = human GLP-1 receptor (human, UniProt P43220); assay: cell-based or functional assay

T2 sequence (P08473 whole entry): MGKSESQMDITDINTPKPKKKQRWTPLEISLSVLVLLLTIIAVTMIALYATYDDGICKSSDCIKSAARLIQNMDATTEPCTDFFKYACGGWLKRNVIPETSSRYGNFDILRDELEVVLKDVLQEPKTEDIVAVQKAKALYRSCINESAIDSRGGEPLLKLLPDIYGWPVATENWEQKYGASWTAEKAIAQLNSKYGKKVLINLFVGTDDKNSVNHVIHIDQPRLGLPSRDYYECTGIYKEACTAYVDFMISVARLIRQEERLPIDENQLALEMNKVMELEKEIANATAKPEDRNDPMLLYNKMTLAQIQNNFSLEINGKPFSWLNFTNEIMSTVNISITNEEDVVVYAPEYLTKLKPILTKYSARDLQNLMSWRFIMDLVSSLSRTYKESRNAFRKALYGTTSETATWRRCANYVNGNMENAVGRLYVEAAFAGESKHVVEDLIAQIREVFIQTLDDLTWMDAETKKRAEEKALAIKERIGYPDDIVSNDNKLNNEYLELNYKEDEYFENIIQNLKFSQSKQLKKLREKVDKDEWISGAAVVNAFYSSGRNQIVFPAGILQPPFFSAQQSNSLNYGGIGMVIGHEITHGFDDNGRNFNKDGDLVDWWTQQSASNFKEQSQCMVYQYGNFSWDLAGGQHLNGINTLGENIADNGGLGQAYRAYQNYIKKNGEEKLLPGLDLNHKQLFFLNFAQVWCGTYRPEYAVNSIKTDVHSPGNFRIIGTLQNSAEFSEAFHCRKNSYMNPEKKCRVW
T3 sequence (P00791 60-385): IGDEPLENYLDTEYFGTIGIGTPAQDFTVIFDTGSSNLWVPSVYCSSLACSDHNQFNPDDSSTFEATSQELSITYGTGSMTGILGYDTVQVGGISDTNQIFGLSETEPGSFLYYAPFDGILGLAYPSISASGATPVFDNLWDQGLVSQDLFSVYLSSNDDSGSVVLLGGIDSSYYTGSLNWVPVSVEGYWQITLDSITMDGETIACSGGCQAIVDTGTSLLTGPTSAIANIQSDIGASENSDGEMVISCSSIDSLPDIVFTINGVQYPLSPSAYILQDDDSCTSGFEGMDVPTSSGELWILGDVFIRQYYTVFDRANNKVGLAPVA

With `CC[C@H](C)[C@H](NC(=O)[C@H](Cc1c[nH]c2ccccc12)NC(=O)[C@H](CCC(=O)O)NC(=O)[C@@H](NC(=O)[C@](C)(Cc1ccccc1)NC(=O)[C@H](CC(=O)O)NC(=O)[C@H](CCC(N)=O)NC(=O)[C@H](C)NC(=O)[C@H](C)NC(=O)[C@H](CCCCNC(=O)CC[C@H](NC(=O)CCCCCCCCCCCCCCCCC(=O)O)C(=O)O)NC(=O)[C@H](CO)NC(=O)[C@H](CC(=O)O)NC(=O)[C@H](CC(C)C)NC(=O)[C@](C)(Cc1ccccc1)NC(=O)[C@H](CCCCN)NC(=O)[C@H](CO)NC(=O)[C@@H](NC(=O)[C@H](CC(=O)O)NC(=O)[C@H](CO)NC(=O)[C@@H](NC(=O)[C@](C)(Cc1ccccc1)NC(=O)[C@H](CO)NC(=O)CNC(=O)[C@H](Cc1c[nH]cn1)NC(=O)C(C)(C)NC(=O)[C@@H](N)Cc1c[nH]cn1)[C@@H](C)O)C(C)C)C(C)C)C(=O)N[C@@H](C)C(=O)N[C@@H](CC(N)=O)C(=O)N[C@H](C(N)=O)[C@@H](C)O` [Peptide 7] (H-H[Aib]HGS[αMeF]TSDVSK[αMeF]LDSK([γGlu-C18 diacid])AAQD[αMeF]VEWIANT-NH2; N-terminus assumed) the “24 hr % Vehicle Food Intake” value (Male C57Bl/6 mice) was 55.0%, the remaining at 10 min, 125 µM [1] was 60% and the “WT % glucose change 120 min” value (wildtype (WT) mice) was 5.4%. The “% intact peptide over time, Neprilysin” value (neprilysin) was 100%.

`CC[C@H](C)[C@H](NC(=O)C(C)(C)NC(=O)[C@H](CCC(N)=O)NC(=O)[C@@H](NC(=O)[C@](C)(Cc1ccccc1)NC(=O)[C@H](CC(=O)O)NC(=O)[C@H](CCCCNC(=O)COCCOCCNC(=O)COCCOCCNC(=O)CC[C@H](NC(=O)CC[C@H](NC(=O)CCCCCCCCCCCCCCCCCCC(=O)O)C(=O)O)C(=O)O)NC(=O)[C@H](C)NC(=O)[C@H](C)NC(=O)[C@H](CCCNC(=N)N)NC(=O)[C@H](CO)NC(=O)[C@H](CC(=O)O)NC(=O)[C@H](CC(C)C)NC(=O)[C@](C)(Cc1ccccc1)NC(=O)[C@H](CCCCN)NC(=O)[C@H](CO)NC(=O)[C@@H](NC(=O)[C@H](CC(=O)O)NC(=O)[C@H](CO)NC(=O)[C@@H](NC(=O)[C@](C)(Cc1ccccc1)NC(=O)[C@H](CO)NC(=O)CNC(=O)[C@H](Cc1c[nH]cn1)NC(=O)C(C)(C)NC(=O)[C@@H](N)Cc1c[nH]cn1)[C@@H](C)O)C(C)C)C(C)C)C(=O)N[C@@H](C)C(=O)N[C@@H](CC(N)=O)C(=O)N[C@H](C(N)=O)[C@@H](C)O` [Peptide 229, H-Aib-H-G-S-αMePhe-T-S-D-V-S-K-αMePhe-L-D-S-R-A-A-K(ε-(O2Oc)-(O2Oc)-γE-γE-C20diacid)20-D-αMePhe-V-Q-Aib-I-A-N-T-amide] (H-H[Aib]HGS[αMeF]TSDVSK[αMeF]LDSRAAK([AEEA-AEEA-γGlu-γGlu-C20 diacid])D[αMeF]VQ[Aib]IANT-NH2) gave a bioavailability [2] of 75%, a half-life ([2]; iv) of 130 h and a half-life [3] of 86 h. For the same molecule, the “% intact peptide over time, Neprilysin” value (neprilysin) was 100%.

With `CC[C@H](C)[C@H](NC(=O)[C@H](Cc1ccccc1)NC(=O)[C@H](CCC(=O)O)NC(=O)[C@H](CCCCNC(=O)COCCOCCNC(=O)COCCOCCNC(=O)CC[C@H](NC(=O)CCCCCCCCCCCCCCCCC(=O)O)C(=O)O)NC(=O)[C@H](C)NC(=O)[C@H](C)NC(=O)[C@H](CCC(N)=O)NC(=O)CNC(=O)[C@H](CCC(=O)O)NC(=O)[C@H](CC(C)C)NC(=O)[C@H](Cc1ccc(O)cc1)NC(=O)[C@H](CO)NC(=O)[C@H](CO)NC(=O)[C@@H](NC(=O)[C@H](CC(=O)O)NC(=O)[C@H](CO)NC(=O)[C@@H](NC(=O)[C@H](Cc1ccccc1)NC(=O)[C@@H](NC(=O)CNC(=O)[C@H](CCC(=O)O)NC(=O)C(C)(C)NC(=O)[C@@H](N)Cc1cnc[nH]1)[C@@H](C)O)[C@@H](C)O)C(C)C)C(=O)N[C@@H](C)C(=O)N[C@@H](Cc1c[nH]c2ccccc12)C(=O)N[C@@H](CC(C)C)C(=O)N[C@H](C(=O)N[C@@H](CCCNC(=N)N)C(=O)NCC(=O)N[C@@H](CCCNC(=N)N)C(=O)NCC(=O)O)C(C)C` [semaglutide, reference compound] the “% intact peptide over time (min), FasSSIF” value (Pancreatin) was 100% and the “% intact peptide over time (min), FasSSGF” value [4] was 100%.

With H[Aib]QGTFTSDVSK[αMeF]LDTK([AEEA-AEEA-γGlu-C18 diacid])RAQDFVRWLLEAG-OH [Peptide 186] the “hGluc-R EC50 (pM), cAMP production (HTRF)” value (human glucagon receptor) was 101 pM and the “hGLP-1R EC50 (pM), cAMP production (HTRF)” value (human GLP-1 receptor) was 44.9 pM.
